Measured values published in ChEMBL document CHEMBL4706647, “Development and optimization of halogenated vinyl sulfones as Nrf2 activators for the treatment of Parkinson's disease” (Eur J Med Chem, 2021).

System: not listed separately
Assay: Cytotoxicity against mouse BV-2 cells assessed cell viability at 10 uM measured after 6 hrs by Ez-cytox reagent based assay relative to control
Details: read-out: Activity

Compound	viability at 6 h, 10 µM [%]
COc1ccccc1S(=O)(=O)/C=C/c1ccccc1Cl	90.1

Target: T1, Nuclear factor erythroid 2-related factor 2 (Homo sapiens, UniProt Q16236)
T1 sequence (Q16236 whole entry): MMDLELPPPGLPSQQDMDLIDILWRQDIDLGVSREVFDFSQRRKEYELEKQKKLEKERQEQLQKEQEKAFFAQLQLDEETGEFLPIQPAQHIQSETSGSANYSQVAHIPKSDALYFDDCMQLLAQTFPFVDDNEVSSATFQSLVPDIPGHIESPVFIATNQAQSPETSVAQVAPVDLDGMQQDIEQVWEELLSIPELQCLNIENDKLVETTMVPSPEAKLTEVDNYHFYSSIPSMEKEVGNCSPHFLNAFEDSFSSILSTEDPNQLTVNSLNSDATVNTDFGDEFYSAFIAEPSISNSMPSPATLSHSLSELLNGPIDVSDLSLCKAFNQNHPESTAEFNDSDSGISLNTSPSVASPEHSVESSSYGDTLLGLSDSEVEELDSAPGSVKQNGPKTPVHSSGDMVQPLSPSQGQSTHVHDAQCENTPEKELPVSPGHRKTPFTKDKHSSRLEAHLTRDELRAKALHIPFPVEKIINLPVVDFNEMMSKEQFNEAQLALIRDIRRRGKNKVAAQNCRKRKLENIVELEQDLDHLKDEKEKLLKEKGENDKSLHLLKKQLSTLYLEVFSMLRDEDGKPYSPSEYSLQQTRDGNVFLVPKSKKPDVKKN
Assay: Activation of Nrf2 (unknown origin) expressed in human U2OS cells co-expressing Keap1 assessed as increase in Nrf2 nuclear translocation incubated for 6 hrs under dark condition by pathhunter assay
Type: cell-based
Details: not given

EC50 [nM]	Compound
3390	O=S(=O)(/C=C\c1cccnc1Cl)c1ccccc1F
198	O=S(=O)(/C=C/c1ncccc1F)c1cccc(Cl)c1
2550	O=S(=O)(/C=C/c1ccc(Cl)nc1)c1ccccc1F
1430	O=S(=O)(/C=C/c1ccccn1)c1cccc(Cl)c1
147	O=S(=O)(/C=C\c1cccc(Cl)n1)c1ccccc1Cl
583	O=S(=O)(/C=C\c1ncccc1F)c1ccccc1Cl
217	O=S(=O)(/C=C/c1cccnc1Cl)c1ccccc1F
781	O=S(=O)(/C=C/c1ccncc1)c1ccccc1Cl
898	O=S(=O)(/C=C/c1cccc(Cl)n1)c1ccccc1F
482	O=S(=O)(/C=C\c1ncccc1F)c1ccccc1F
328	O=S(=O)(/C=C/c1cccnc1Cl)c1cccc(F)c1
618	O=S(=O)(/C=C/c1ccccn1)c1ccccc1Cl
1100	O=S(=O)(/C=C\c1ncccc1Cl)c1ccccc1Cl
> 10000	O=S(=O)(/C=C/c1ccc(Cl)nc1)c1ccc(Cl)cc1
213	O=S(=O)(/C=C/c1cccnc1Cl)c1cccc(Cl)c1
252	O=S(=O)(/C=C\c1ncccc1F)c1cccc(Cl)c1
1630	O=S(=O)(/C=C/c1ccc(Cl)nc1)c1ccccc1Cl
760	O=S(=O)(/C=C/c1ccncc1)c1ccccc1F
> 10000	O=S(=O)(/C=C/c1ccc(Cl)nc1)c1ccc(F)cc1
3100	O=S(=O)(/C=C/c1ccccn1)c1ccc(F)cc1

EC50 [nM]	Compound
474	O=S(=O)(/C=C/c1ncccc1F)c1cccc(F)c1
542	O=S(=O)(/C=C/c1ncccc1F)c1ccc(F)cc1
1030	O=S(=O)(/C=C\c1ncccc1Cl)c1ccccc1F
2850	O=S(=O)(/C=C/c1cccnc1)c1ccccc1Cl
305	O=S(=O)(/C=C/c1cccnc1Cl)c1ccc(Cl)cc1
65	O=S(=O)(/C=C/c1ncccc1Cl)c1ccc(Cl)cc1
2210	O=S(=O)(/C=C/c1ccc(Cl)nc1)c1cccc(Cl)c1
6850	O=S(=O)(/C=C/c1cccnc1)c1ccccc1F
2500	O=S(=O)(/C=C/c1ccc(Cl)cn1)c1cccc(F)c1
122	O=S(=O)(/C=C/c1ncccc1F)c1ccccc1Cl
528	O=S(=O)(/C=C/c1ccncc1)c1cccc(Cl)c1
192	O=S(=O)(/C=C/c1cccnc1Cl)c1ccccc1Cl
1070	O=S(=O)(/C=C/c1cccc(Cl)n1)c1cccc(Cl)c1
290	O=S(=O)(/C=C\c1ncccc1Cl)c1cccc(Cl)c1
1680	O=S(=O)(/C=C/c1ccccn1)c1cccc(F)c1
4870	O=S(=O)(/C=C/c1ccc(Cl)nc1)c1cccc(F)c1
950	O=S(=O)(/C=C/c1ccncc1)c1cccc(F)c1
3160	O=S(=O)(/C=C/c1ccc(Cl)cn1)c1ccc(Cl)cc1
1040	O=S(=O)(/C=C/c1ccc(Cl)cn1)c1ccccc1F
1050	O=S(=O)(/C=C/c1ccccn1)c1ccccc1F

EC50 [nM]	Compound
176	O=S(=O)(/C=C/c1ncccc1F)c1ccccc1F
3520	O=S(=O)(/C=C/c1cccnc1)c1cccc(Cl)c1
1460	O=S(=O)(/C=C/c1cccc(Cl)n1)c1ccc(Cl)cc1
965	O=S(=O)(/C=C\c1ccc(Cl)nc1)c1cccc(F)c1
1730	O=S(=O)(/C=C/c1ccccn1)c1ccc(Cl)cc1
339	O=S(=O)(/C=C/c1cccnc1Cl)c1ccc(F)cc1
384	O=S(=O)(/C=C\c1cccnc1Cl)c1ccccc1Cl
4370	O=S(=O)(/C=C/c1ccc(Cl)cn1)c1ccc(F)cc1
30	O=S(=O)(/C=C/c1ncccc1Cl)c1ccccc1F
231	O=S(=O)(/C=C/c1ncccc1Cl)c1ccc(F)cc1
1510	O=S(=O)(/C=C/c1ccc(Cl)cn1)c1cccc(Cl)c1
3390	O=S(=O)(/C=C\c1ccc(Cl)nc1)c1cccc(Cl)c1
286	O=S(=O)(/C=C/c1ncccc1F)c1ccc(Cl)cc1
1750	O=S(=O)(/C=C\c1ncccc1Cl)c1ccc(Cl)cc1
4820	O=S(=O)(/C=C\c1cccnc1)c1cccc(F)c1
2790	O=S(=O)(/C=C/c1cccc(Cl)n1)c1ccc(F)cc1
46	O=S(=O)(/C=C/c1ncccc1Cl)c1cccc(Cl)c1
2940	O=S(=O)(/C=C/c1ccc(Cl)cn1)c1ccccc1Cl

Target: CYP2C9 (Homo sapiens, UniProt P11712)
Assay: Inhibition of CYP2C9 (unknown origin) assessed as residual activity
Type: ADME
Details: not given

CYP2C9, sequence (P11712 whole entry): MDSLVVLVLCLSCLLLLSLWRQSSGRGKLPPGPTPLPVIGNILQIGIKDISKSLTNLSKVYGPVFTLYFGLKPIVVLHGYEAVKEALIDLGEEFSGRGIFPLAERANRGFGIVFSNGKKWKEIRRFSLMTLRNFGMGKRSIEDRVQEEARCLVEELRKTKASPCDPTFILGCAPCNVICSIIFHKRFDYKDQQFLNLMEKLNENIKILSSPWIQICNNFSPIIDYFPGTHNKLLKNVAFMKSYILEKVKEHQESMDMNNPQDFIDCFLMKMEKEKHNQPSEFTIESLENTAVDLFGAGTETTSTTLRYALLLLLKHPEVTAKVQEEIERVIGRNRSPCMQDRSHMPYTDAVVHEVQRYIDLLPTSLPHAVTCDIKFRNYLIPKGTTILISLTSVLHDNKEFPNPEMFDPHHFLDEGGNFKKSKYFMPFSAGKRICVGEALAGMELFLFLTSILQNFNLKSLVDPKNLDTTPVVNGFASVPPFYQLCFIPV

activity [%]	Compound
100	COc1ccccc1S(=O)(=O)/C=C/c1ccccc1Cl

System: not listed separately
Assay: Stability in human plasma assessed as parent compound remaining after 30 mins by LC-MS/MS analysis
Type: ADME, cell-free
Details: read-out: Stabilty

remaining at 0.5 h [%]	Compound
86.1	COc1ccccc1S(=O)(=O)/C=C/c1ccccc1Cl

Target: Voltage-gated inwardly rectifying potassium channel KCNH2 (Homo sapiens, UniProt Q12809)
Assay: Inhibition of fluorescence tracer red binding to human ERG measured after 4 hrs by fluorescence polarization assay
Details: not given

Voltage-gated inwardly rectifying potassium channel KCNH2, sequence (Q12809 whole entry): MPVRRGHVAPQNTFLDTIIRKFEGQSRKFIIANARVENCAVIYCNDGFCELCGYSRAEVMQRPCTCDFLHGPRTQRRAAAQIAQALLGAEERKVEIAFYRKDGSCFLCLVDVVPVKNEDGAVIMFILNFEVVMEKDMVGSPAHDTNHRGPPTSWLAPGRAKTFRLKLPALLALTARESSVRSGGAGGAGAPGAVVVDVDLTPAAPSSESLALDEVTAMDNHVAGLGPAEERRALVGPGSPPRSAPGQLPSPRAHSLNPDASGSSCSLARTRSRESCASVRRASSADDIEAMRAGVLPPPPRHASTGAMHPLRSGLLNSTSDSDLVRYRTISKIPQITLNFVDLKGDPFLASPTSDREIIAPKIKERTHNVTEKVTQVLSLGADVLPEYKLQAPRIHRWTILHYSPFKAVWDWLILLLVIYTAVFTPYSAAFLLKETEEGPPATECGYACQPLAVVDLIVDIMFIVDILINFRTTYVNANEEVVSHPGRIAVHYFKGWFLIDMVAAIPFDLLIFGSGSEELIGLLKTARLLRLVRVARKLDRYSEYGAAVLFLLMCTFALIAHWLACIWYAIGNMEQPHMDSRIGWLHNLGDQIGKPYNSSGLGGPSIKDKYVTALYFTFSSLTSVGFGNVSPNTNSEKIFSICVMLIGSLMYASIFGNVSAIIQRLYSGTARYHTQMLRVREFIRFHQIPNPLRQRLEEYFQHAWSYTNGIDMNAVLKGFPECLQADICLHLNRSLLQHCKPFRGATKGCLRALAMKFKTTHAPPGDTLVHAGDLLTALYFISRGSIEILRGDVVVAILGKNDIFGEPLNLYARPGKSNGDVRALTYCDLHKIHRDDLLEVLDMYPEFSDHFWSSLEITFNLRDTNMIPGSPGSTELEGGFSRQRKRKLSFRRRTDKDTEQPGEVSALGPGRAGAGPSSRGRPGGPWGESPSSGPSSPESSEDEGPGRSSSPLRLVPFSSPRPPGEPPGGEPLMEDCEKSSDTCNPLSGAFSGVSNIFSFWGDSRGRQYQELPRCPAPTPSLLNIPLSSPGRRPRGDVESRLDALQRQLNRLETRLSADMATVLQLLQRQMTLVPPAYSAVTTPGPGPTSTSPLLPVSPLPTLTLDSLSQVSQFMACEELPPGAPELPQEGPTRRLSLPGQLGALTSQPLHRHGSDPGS

Compound	IC50 [nM]
COc1ccccc1S(=O)(=O)/C=C/c1ccccc1Cl	12000
